Data on three compounds can be found in patent EP0558673B1, “RETROVIRAL PROTEASE INHIBITORS” (MONSANTO COMPANY, priority 1990, dated 1992).

The target in one experiment is T1, HIV protease (Human immunodeficiency virus type 1 group M subtype B, UniProt P04585).
T1 construct: final enzyme concentration of 12.3 nanomolar, based on a molecular weight of 10,780
Put plainly: HIV protease enzyme assay (fluorescence, substrate 2-aminobenzoyl-Ile-Nle-Phe(p-NO₂)-Gln-ArgNH₂). Type of experiment: biochemical. The settings on record: Table 16; enzyme 12.3 nanomolar, substrate 80 µM, pH 6.4, ambient temperature; read-out: IC₅₀. From the text: The compounds of the present invention are effective HIV protease inhibitors. Utilizing an enzyme assay as described below, the compounds set forth in the examples herein disclosed inhibited the HIV enzyme. The preferred compounds of the present invention and their calculated IC₅₀ (inhibiting concentration 50%, i.e., the concentration at which the inhibitor compound reduces enzyme activity by 50%) values are shown in Table 16. The enzyme method is described below. The substrate is 2-aminobenzoyl-Ile-Nle-Phe(p-NO₂)-Gln-ArgNH₂. The positive control is MVT-101 (Miller, M. et al, Science, 246, 1149 (1989)] The assay conditions are as follows: Assay buffer: 20 mM sodium phosphate, pH 6.4 20% glycerol 1 mM EDTA 1 mM DTT 0.1% CHAPS
The above described substrate is dissolved in DMSO, then diluted 10 fold in assay buffer. Final substrate concentration in the assay is 80 µM.
HIV protease is diluted in the assay buffer to a final enzyme concentration of 12.3 nanomolar, based on a molecular weight of 10,780.
The final concentration of DMSO is 14% and the final concentration of glycerol is 18%. The test compound is dissolved in DMSO and diluted in DMSO to 10x the test concentration; 10µl of the enzyme preparation is added, the materials mixed and then the mixture is incubated at ambient temperature for 15 minutes. The enzyme reaction is initiated by the addition of 40µl of substrate. The increase in fluorescence is monitored at 4 time points (0, 8, 16 and 24 minutes) at ambient temperature. Each assay is carried out in duplicate wells.

In another experiment the test system is HIV-1. In words: CEM cell assay: HIV inhibition assay of acutely infected cells (tetrazolium/MTT colorimetric). Type of experiment: cell-based. The following applies: Human immunodeficiency virus 1, CCRF-CEM, 168 h; Table 17; CEM cells acutely infected with HIV-1, 7 days, MTT readout; read-out: EC₅₀. The method, then:
The effectiveness of the compounds listed in Table 16 were determined in the above-described enzyme assay and in a CEM cell assay.
Methods 20, 309-321 (1988).

Consider `CC(C)CCN(C[C@@H](O)[C@H](Cc1ccccc1)NC(=O)[C@@H](NS(=O)(=O)CCc1ccccc1)C(C)(C)C)C(=O)NC(C)(C)C` (relative stereo) [Compound 1, 3-Thia-4,7,11-triazadodecan-12-amide, N,5-bis(1,1-dimethylethyl)-9-hydroxy-11-(3-methylbutyl)-6-oxo-8-(phenylmethyl)-1-phenyl-, 2,2-dioxide-,5S-,(5R*,8R*,9S*)]], for which the IC50 on HIV protease amounted to 22 nM. The EC50 in the experiment with HIV-1 came to 510 nM.
Taken in the same sequence, the figures for `CC(C)CCN(C[C@@H](O)[C@H](Cc1ccccc1)NC(=O)[C@@H](NS(=O)(=O)CCc1ccccc1)C(C)C)C(=O)NC(C)(C)C` (relative stereo) [Compound 2, 3-Thia-4,7,11-triazadodecan-12-amide, N-(1,1-dimethylethyl)-5-(1-methylethyl)-9-hydroxy-11-(3-methylbutyl)-6-oxo-8-(phenylmethyl)-1-phenyl-, 2,2-dioxide-,[5S-,(5R*,8R*,9S*)]] were 29 nM and 440 nM.
Take `CC(C)CCN(C[C@@H](O)[C@H](Cc1ccccc1)NC(=O)[C@H](CC(N)=O)NS(=O)(=O)CCc1ccccc1)C(=O)NC(C)(C)C` (relative stereo) [Compound 3, 3-Thia-4,7,11-triazadodecan-12-amide, N-(1,1-dimethylethyl)-5-(2-amino-2-oxo-ethyl)-9-hydroxy-11-(3-methylbutyl)-6-oxo-8-(phenylmethyl)-1-phenyl-, 2,2-dioxide-,[5S-,(5R*,8R*,9S*)]]: on HIV protease, the IC50 came out at 24 nM.
